Data: patent publication US20050101595A1, “N-containing cycloalkyl-substituted amino-thiazole derivatives and pharmaceutical compositions for inhibiting cell proliferation and methods for their use” (PFIZER INC., priority 2003, published 2005)
pIC50, pKi: −log10 of the molar value. Structures can show the parent of a compound that is named as a salt. Where two headings read alike, the source gives them in different places.

Assays:
[1] = target: CDK2/Cyclin A (Homo sapiens, UniProt P24941); assay: Inhibition of CDK2/Cyclin A Retinoblastoma Kinase Activity; format: biochemical; conditions: for pKi: apparent Ki, CDK2/proteolyzed cyclin A, Rb fragment substrate, 25 μM ATP; for CDK2 % Inhibition At 0.03 μM: Table 2
How it was run: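 Human CDK2, baculovirus/insect-cell expressed, complexed with proteolyzed cyclin A (10 nM or 19 nM CDK2) phosphorylates an Rb fragment with 25 μM [32P/33P]ATP at pH 7.4, 30° C, for 60 or 75 minutes under initial-rate conditions. Filter-captured radioactivity is read by phosphorimager; apparent Ki from competitive-inhibition fits.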

[2] = tested on: HCT-116 cell line; assay: Inhibition of cell growth, tetrazolium salt (MTT) assay; format: cell-based; conditions: for pIC50: Homo sapiens, HCT-116, 120 h, MTT, three to five days, read-out: HCT-116 IC50; for HCT-116 % Inhibition at 0.25 μM: 0.25 μM compound
How it was run: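 McCoy's 5A cultures; 4 h pre-incubation; compound dilutions in 0.5% v/v DMSO; 3–5 d, 37° C, 5% CO2; MTT 0.2 mg/mL final, 4 h; formazan dissolved in DMSO, A540; vs 0.5% DMSO vehicle.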

[3] = target: human CDK4 and genetically truncated (1-264) cyclin D3 (Homo sapiens, UniProt P11802); assay: Inhibition of CDK4/Cyclin D Retinoblastoma Kinase Activity; format: biochemical; conditions: for pKi: apparent Ki, CDK4/truncated cyclin D3, Rb fragment substrate, 25 μM ATP
Sequence of human CDK4 and genetically truncated (1-264) cyclin D3 (P11802 whole entry, the tested form may be a part): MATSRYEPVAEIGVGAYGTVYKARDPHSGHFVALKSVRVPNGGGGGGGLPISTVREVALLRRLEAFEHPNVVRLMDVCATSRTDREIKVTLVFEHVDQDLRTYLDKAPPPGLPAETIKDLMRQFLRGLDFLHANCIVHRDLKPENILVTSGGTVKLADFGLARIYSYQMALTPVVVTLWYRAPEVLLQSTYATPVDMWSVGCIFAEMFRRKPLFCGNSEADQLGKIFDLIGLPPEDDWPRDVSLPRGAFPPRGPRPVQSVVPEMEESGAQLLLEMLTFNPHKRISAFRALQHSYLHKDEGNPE
Sequence of human CDK4 and genetically truncated (1-264) cyclin D3 (P30281 1-264 partner): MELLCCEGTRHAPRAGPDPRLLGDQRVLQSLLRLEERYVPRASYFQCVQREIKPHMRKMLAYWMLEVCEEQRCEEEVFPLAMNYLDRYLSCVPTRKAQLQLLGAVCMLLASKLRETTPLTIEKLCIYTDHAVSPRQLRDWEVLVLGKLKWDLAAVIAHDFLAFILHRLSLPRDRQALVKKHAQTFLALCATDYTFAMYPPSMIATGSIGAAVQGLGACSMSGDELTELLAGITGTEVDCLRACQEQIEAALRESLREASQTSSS
How it was run: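 Read-out: 32P/33P incorporation into Rb fragment (386-928) captured on nitrocellulose, phosphorimager. Enzyme 5 nM CDK4/cyclin D3(1-264) from insect cells; ATP 25 μM, pH 7.4, 30 °C, 20 min (60 min for tight binders). Ki from competitive fits.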

[4] = 0.1 μM compound, HCT-116, Table 4
[5] = 0.1 μM compound, HCT-116, Table 3

| Compound | pKi [1] | pIC50 ([2]; first HCT-116 column (c4)) | pIC50 ([2]; second HCT-116 column (c5)) | pKi [3] | CDK2 % Inhibition at 0.03 μM ([1]; at 0.03 μM) | HCT-116 % Inhibition at 0.1 μM ([2]; HCT-116 cells, at 0.1 μM) | HCT-116 5 Inhibition at 0.25 μM ([2]; HCT-116 cells) | CDK4 % Inhibition at 0.03 μM ([3]; at 0.03 μM) | other results |
| --- | --- | --- | --- | --- | --- | --- | --- | --- | --- |
| N#CCCCS(=O)(=O)N1CCC(Nc2nc(N)c(C(=O)c3c(F)cccc3F)s2)CC1 [Example K17, 1-(4-{4-Amino-5-[1-(2,6-difluorophenyl)methanoyl]-thiazol-2-ylamino}-piperidine-1-sulfonyl)butyronitrile.] | 8.60 | 6.05 | 5.66 | 8.47 |  |  |  |  |  |
| Cc1cncn1-c1ccc(S(=O)(=O)N2CCC(Nc3nc(N)c(C(=O)c4c(F)cccc4F)s3)CC2)cn1 [Example G28, 1-(4-Amino-2-{1-[6-(5-methyl-imidazol-1-yl)-pyridine-3-sulfonyl]-piperidin-4-ylamino}-thiazol-5-yl)-1-(2,6-difluoro-phenyl)-methanone Hydrochloride] | 9.40 | 6.80 | 6.48 | 9.07 |  |  |  |  |  |
| CCOC(=O)CC(=O)N1CCC(Nc2nc(N)c(C(=O)c3c(F)cccc3F)s2)CC1 [Example Q47] |  |  |  |  |  |  |  |  | CDK2 % Inhibition at 0.03 μM ([1]; 0.03 μM compound, Table 4): −13%; HCT-116 % Inhibition at 0.1 μM [2, 4]: 0%; HCT-116 % Inhibition at 0.25 μM ([2]; HCT-116, Table 4): 25%; CDK4 % Inhibition at 0.03 μM ([3]; 0.03 μM compound, Table 4): 9% |
| COc1cccc(NC(=O)N2CCC(Nc3nc(N)c(C(=O)c4c(F)cccc4F)s3)CC2)c1 [Example O15] |  |  |  |  |  |  |  |  | CDK2 % Inhibition At 0.03 μM ([1]; 0.03 μM compound): 36%; HCT-116 % Inhibition at 0.25 μM ([2]; HCT-116, Table 2): 13%; CDK4 % Inhibition at 0.03 μM ([3]; 0.03 μM compound, Table 2): 4% |
| Nc1nc(NC2CCN(C(=O)c3cnc(Cl)c(Cl)c3)CC2)sc1C(=O)c1c(F)cccc1F [Example R30] |  |  |  |  | 31% | 13% | 43 | 63% |  |
| CC(=O)Nc1nc(C)c(S(=O)(=O)N2CCC(Nc3nc(N)c(C(=O)c4c(F)cccc4F)s3)CC2)s1 [Example P4] |  |  |  |  |  |  |  |  | CDK2 % Inhibition at 0.03 μM ([1]; 0.03 μM compound, Table 3): 15%; HCT-116 % Inhibition at 0.1 μM [2, 5]: 18%; HCT-116 % Inhibition at 0.25 μM ([2]; HCT-116, Table 3): 24%; CDK4 % Inhibition at 0.03 μM ([3]; 0.03 μM compound, Table 3): 32% |
| Nc1nc(NC2CCN(S(=O)(=O)CCCN3CCOCC3)CC2)sc1C(=O)c1c(F)cccc1F [Example K12, 1-(4-Amino-2-{1-[3-(morpholin-4-yl)propane-1-sulfonyl]-piperidin-4-ylamino}-thiazol-5-yl)-1-(2,6-difluoro-phenyl)-methanone.] | 8.17 | 6.22 | 5.30 | 8.33 |  |  |  |  |  |
| COc1ccc(CCC(=O)N2CCC(Nc3nc(N)c(C(=O)c4c(F)cccc4F)s3)CC2)cc1 [Example R176] |  |  |  |  | 2% | 1% | 43 | 4% |  |
| Nc1nc(NC2CCN(C(=O)c3ccc(Br)cc3)CC2)sc1C(=O)c1c(F)cccc1F [Example D11] | 7.09 | 6.14 | 5.74 | 7.51 |  |  |  |  |  |
| CC1(C)CN(c2ccc(S(=O)(=O)N3CCC(Nc4nc(N)c(C(=O)c5c(F)cccc5F)s4)CC3)cn2)CCN1 [Example G22, 1-(4-Amino-2-{1-[6-(3,3-dimethyl-piperazin-1-yl)-pyridine-3-sulfonyl]-piperidin-4-ylamino}-thiazol-5-yl)-1-(2,6-difluoro-phenyl)-methanone] | 9.18 | 6.68 | 5.52 | 9.66 |  |  |  |  |  |
| CCOC(=O)CCNC(=O)N1CCC(Nc2nc(N)c(C(=O)c3c(F)cccc3F)s2)CC1 [Example O73] |  |  |  |  |  |  |  |  | CDK2 % Inhibition At 0.03 μM ([1]; 0.03 μM compound): 29%; HCT-116 % Inhibition at 0.25 μM ([2]; HCT-116, Table 2): 42%; CDK4 % Inhibition at 0.03 μM ([3]; 0.03 μM compound, Table 2): 4% |
| CN1CC[C@H](c2ccc(S(=O)(=O)N3CCC(Nc4nc(N)c(C(=O)c5c(F)cccc5F)s4)CC3)cc2)C1 [Example F52, (4-Amino-2-{1-[4-(1-methyl-pyrrolidin-3R-yl)-benzenesulfonyl]-piperidin-4-ylamino}-thiazol-5-yl)-(2,6-difluoro-phenyl)-methanone] | 9.00 | 7.03 | 6.30 | 9.28 |  |  |  |  |  |
| Nc1nc(NC2CCN(C(=O)c3c(F)cccc3Cl)CC2)sc1C(=O)c1c(F)cccc1F [Example R109] |  |  |  |  | 21% | 14% | 47 | 34% |  |
| CSc1nccc(-c2ccc(S(=O)(=O)N3CCC(Nc4nc(N)c(C(=O)c5c(F)cccc5F)s4)CC3)s2)n1 [Example P72] |  |  |  |  |  |  |  |  | CDK2 % Inhibition at 0.03 μM ([1]; 0.03 μM compound, Table 3): 61%; HCT-116 % Inhibition at 0.1 μM [2, 5]: 13%; HCT-116 % Inhibition at 0.25 μM ([2]; HCT-116, Table 3): 35%; CDK4 % Inhibition at 0.03 μM ([3]; 0.03 μM compound, Table 3): 61% |
| Nc1nc(NC2CCN(C(=O)c3cccnc3Sc3ccccc3)CC2)sc1C(=O)c1c(F)cccc1F [Example R41] |  |  |  |  | 24% | 0% | 41 | 32% |  |
| Cn1ccnc1-c1ccc(S(=O)(=O)N2CCC(Nc3nc(N)c(C(=O)c4c(F)cccc4F)s3)CC2)cn1 [Example I3, 1-(4-Amino-2-{1-[6-(1-methyl-1H-imidazol-2-yl)-pyridine-3-sulfonyl]-piperidin-4-ylamino}-thiazol-5-yl)-1-(2,6-difluoro-phenyl)-methanone Trifluoroacetic Acid Salt] | 8.77 | 6.80 | 6.30 | 8.70 |  |  |  |  |  |
| Nc1nc(NC2CCN(C(=O)c3cccc(Cl)c3)CC2)sc1C(=O)c1c(F)cccc1F [Example R132] |  |  |  |  | 28% | 15% | 60 | 55% |  |
| CCCCS(=O)(=O)N1CCC(Nc2nc(N)c(C(=O)c3c(F)cccc3F)s2)CC1 [Example P27] |  |  |  |  |  |  |  |  | CDK2 % Inhibition at 0.03 μM ([1]; 0.03 μM compound, Table 3): 16%; HCT-116 % Inhibition at 0.1 μM [2, 5]: 4%; HCT-116 % Inhibition at 0.25 μM ([2]; HCT-116, Table 3): 23%; CDK4 % Inhibition at 0.03 μM ([3]; 0.03 μM compound, Table 3): 41% |
| Nc1nc(NC2CCN(S(=O)(=O)c3ccc(-c4cccnc4)cc3)CC2)sc1C(=O)c1c(F)cccc1F [Example I8, 1-{4-Amino-2-[1-(4-pyridin-3-yl-benzenesulfonyl)-piperidin-4-ylamino]-thiazol-5-yl}-1-(2,6-difluoro-phenyl)-methanone Trifluoroacetic Acid Salt] | 9.52 | 7.15 | 6.30 | 9.32 |  |  |  |  |  |
| Nc1nc(NC2CCN(C(=O)CC3C=CCC3)CC2)sc1C(=O)c1c(F)cccc1F (centres unmarked) [Example R98] |  |  |  |  | 8% | 0% | 44 | 11% |  |
| COc1cc(Cl)ccc1C(=O)N1CCC(Nc2nc(N)c(C(=O)c3c(F)cccc3F)s2)CC1 [Example R145] |  |  |  |  | 45% | 0% | 38 | 53% |  |
| CC(=O)OCC(=O)N1CCC(Nc2nc(N)c(C(=O)c3c(F)cccc3F)s2)CC1 [Example Q76] |  |  |  |  |  |  |  |  | CDK2 % Inhibition at 0.03 μM ([1]; 0.03 μM compound, Table 4): 27%; HCT-116 % Inhibition at 0.1 μM [2, 4]: 4%; HCT-116 % Inhibition at 0.25 μM ([2]; HCT-116, Table 4): 36%; CDK4 % Inhibition at 0.03 μM ([3]; 0.03 μM compound, Table 4): 31% |
| Nc1nc(NC2CCN(C(=O)c3cccc(C(F)(F)F)c3)CC2)sc1C(=O)c1c(F)cccc1F [Example R139] |  |  |  |  | 50% | 20% | 62 | 75% |  |
| COc1cc(C(=O)N2CCC(Nc3nc(N)c(C(=O)c4c(F)cccc4F)s3)CC2)ccc1C [Example D12, 1-[4-Amino-2-{1-[-(3-methoxy-4-methyl-phenyl)-methanoyl]-piperidin-4-ylamino}-thiazol-5-yl)-1-(2,6-difluoro-phenyl)-methanone Trifluoroacetic Acid Salt] | 7.54 | 6.92 | 6.49 | 7.85 |  |  |  |  |  |
| CCn1nc(C)c(Br)c1C(=O)N1CCC(Nc2nc(N)c(C(=O)c3c(F)cccc3F)s2)CC1 [Example R68] |  |  |  |  | 22% | 0% | 33 | 15% |  |
| COc1ccc(C=CC(=O)N2CCC(Nc3nc(N)c(C(=O)c4c(F)cccc4F)s3)CC2)c(Cl)c1OC [Example R61] |  |  |  |  | 63% | 0% | 37 | 59% |  |
| Nc1nc(NC2CCN(S(=O)(=O)c3ccc(N4CCNCC4)nc3)CC2)sc1C(=O)c1c(F)cccc1F [Example G6, 1-{4-Amino-2-[1-(6-piperazin-1-yl-pyridine-3-sulfonyl)-piperidin-4-ylamino]-thiazol-5-yl}-1-(2,6-difluoro-phenyl)-methanone] | 9.16 | 6.68 | 5.49 | 9.27 |  |  |  |  |  |
| Cc1c(S(=O)(=O)c2ccc(Cl)cc2)csc1C(=O)N1CCC(Nc2nc(N)c(C(=O)c3c(F)cccc3F)s2)CC1 [Example R47] |  |  |  |  | −7% | 8% | 45 | 20% |  |
